Measured values as given in ChEMBL document CHEMBL5233278, “Recent Advances in the Medicinal Chemistry of Farnesoid X Receptor” (J Med Chem, 2021).

Tests used:
[1] = molecular target: T1, Bile acid receptor (Homo sapiens, UniProt Q96RI1); assay: Agonist activity at FXR in HEK293T cells incubated for 24 hrs by Steady-Glo luciferase assay; type: cell-based
T1 sequence (Q96RI1 whole entry): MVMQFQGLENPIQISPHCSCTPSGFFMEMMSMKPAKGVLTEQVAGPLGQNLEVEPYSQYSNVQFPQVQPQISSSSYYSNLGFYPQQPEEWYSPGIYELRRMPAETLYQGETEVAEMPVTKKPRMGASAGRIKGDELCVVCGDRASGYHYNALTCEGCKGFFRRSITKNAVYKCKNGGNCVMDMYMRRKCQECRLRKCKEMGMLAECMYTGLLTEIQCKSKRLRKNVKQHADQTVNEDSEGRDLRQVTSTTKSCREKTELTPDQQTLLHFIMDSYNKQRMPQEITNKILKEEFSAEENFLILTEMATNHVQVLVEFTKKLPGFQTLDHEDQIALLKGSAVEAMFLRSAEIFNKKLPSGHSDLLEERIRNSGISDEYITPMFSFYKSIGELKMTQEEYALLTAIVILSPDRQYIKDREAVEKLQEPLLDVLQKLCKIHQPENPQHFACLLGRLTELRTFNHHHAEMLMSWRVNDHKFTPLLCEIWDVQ

[2] = molecular target: Voltage-gated inwardly rectifying potassium channel KCNH2 (Homo sapiens, UniProt Q12809); assay: Inhibition of hERG; type: toxicity
[3] = molecular target: T1, Bile acid receptor; assay: Agonist activity at FXR in HEK293T cells by steady-glo luciferase assay; type: cell-based
[4] = molecular target: T1, Bile acid receptor; assay: Agonist activity at human FXR
[5] = molecular target: Bile acid receptor (Homo sapiens) (UniProt Q96RI1); assay: Agonist activity at FXR in human HepG2 cells at 3 uM relative to control; details: filed as agonist
[6] = molecular target: Bile acid receptor (Homo sapiens) (UniProt Q96RI1); assay: Agonist activity at FXR in human HepG2 cells coexpressing BSEP at 0.3 uM relative to control; details: filed as agonist
[7] = Metabolic stability in human liver microsomes assessed as half life in presence of NADPH incubated up to 60 mins by LC-MS/MS analysis; type: ADME, Microsome
[8] = molecular target: T1, Bile acid receptor; assay: Agonist activity at FXR in human HeLa cells by Dual-Glo luciferase assay; type: cell-based
[9] = molecular target: T2, Bile acid receptor (Homo sapiens) (UniProt Q96RI1); assay: Agonist activity at human FXR expressed in CHO cells assessed as maximum efficacy incubated for 22 hrs by luciferase reporter assay relative to control; type: cell-based
T2 sequence (whole entry): T1 sequence (Q96RI1 whole entry)

[10] = system: Mus musculus; assay: Anti-NASH activity in nonalcoholic steatohepatitis C57BL/6 mouse model assessed as decrease in level of serum ALT 10 mg/kg, iv relative to control; type: functional; design: scale not given: the % may be the effect or the level left
[11] = system: Mus musculus; assay: Anti-NASH activity in nonalcoholic steatohepatitis C57BL/6 mouse model assessed as decrease in level of serum AST 10 mg/kg, iv relative to control; type: functional; design: scale not given: the % may be the effect or the level left
[12] = molecular target: T1, Bile acid receptor; assay: Agonist activity at human FXR incubated for 24 hrs by luciferase reporter assay
[13] = molecular target: T1, Bile acid receptor; assay: Agonist activity at human GST-tagged FXR incubated for 1 hrs by alphascreen assay
[14] = molecular target: T1, Bile acid receptor; assay: Agonist activity at FXR in HEK293T cells by lanthascreen TR-FRET assay; type: cell-based
[15] = molecular target: T2, Bile acid receptor (Homo sapiens); assay: Agonist activity at FXR in HEK293 cells assessed as maximum efficacy relative to control; type: cell-based; details: filed as agonist
[16] = AUC(0 to 24 hrs) in Sprague-Dawley rat liver at 5 mg/kg, po measured up to 24 hrs by LC-MS-MS analysis; type: ADME, organism-based; design: dose 5 mg/kg, time < 24 hrs, route po; details: in vivo
[17] = AUC(0 to 24 hrs) in Sprague-Dawley rat serum at 5 mg/kg, po measured up to 24 hrs by LC-MS-MS analysis; type: ADME, organism-based; design: dose 5 mg/kg, time < 24 hrs, route po
[18] = Cmax in Sprague-Dawley rat liver at 5 mg/kg, po measured up to 24 hrs by LC-MS-MS analysis; type: ADME, organism-based; design: time < 24 hrs, dose 5 mg/kg, route po
[19] = Cmax in Sprague-Dawley rat serum at 5 mg/kg, po measured up to 24 hrs by LC-MS-MS analysis; type: ADME, organism-based; design: dose 5 mg/kg, time < 24 hrs, route po
[20] = AUC(0 to 24 hrs) in Sprague-Dawley rat serum at 1 mg/kg, iv measured up to 24 hrs by LC-MS-MS analysis; type: ADME, organism-based; design: dose 1 mg/kg, time < 24 hrs, route iv
[21] = Cmax in Sprague-Dawley rat serum at 1 mg/kg, iv measured up to 24 hrs by LC-MS-MS analysis; type: ADME, organism-based; design: time < 24 hrs, dose 1 mg/kg, route iv
[22] = Stability in human plasma assessed as half life; type: ADME, cell-free
[23] = molecular target: T1, Bile acid receptor; assay: Agonist activity at FXR (unknown origin)

Voltage-gated inwardly rectifying potassium channel KCNH2, sequence (Q12809 whole entry): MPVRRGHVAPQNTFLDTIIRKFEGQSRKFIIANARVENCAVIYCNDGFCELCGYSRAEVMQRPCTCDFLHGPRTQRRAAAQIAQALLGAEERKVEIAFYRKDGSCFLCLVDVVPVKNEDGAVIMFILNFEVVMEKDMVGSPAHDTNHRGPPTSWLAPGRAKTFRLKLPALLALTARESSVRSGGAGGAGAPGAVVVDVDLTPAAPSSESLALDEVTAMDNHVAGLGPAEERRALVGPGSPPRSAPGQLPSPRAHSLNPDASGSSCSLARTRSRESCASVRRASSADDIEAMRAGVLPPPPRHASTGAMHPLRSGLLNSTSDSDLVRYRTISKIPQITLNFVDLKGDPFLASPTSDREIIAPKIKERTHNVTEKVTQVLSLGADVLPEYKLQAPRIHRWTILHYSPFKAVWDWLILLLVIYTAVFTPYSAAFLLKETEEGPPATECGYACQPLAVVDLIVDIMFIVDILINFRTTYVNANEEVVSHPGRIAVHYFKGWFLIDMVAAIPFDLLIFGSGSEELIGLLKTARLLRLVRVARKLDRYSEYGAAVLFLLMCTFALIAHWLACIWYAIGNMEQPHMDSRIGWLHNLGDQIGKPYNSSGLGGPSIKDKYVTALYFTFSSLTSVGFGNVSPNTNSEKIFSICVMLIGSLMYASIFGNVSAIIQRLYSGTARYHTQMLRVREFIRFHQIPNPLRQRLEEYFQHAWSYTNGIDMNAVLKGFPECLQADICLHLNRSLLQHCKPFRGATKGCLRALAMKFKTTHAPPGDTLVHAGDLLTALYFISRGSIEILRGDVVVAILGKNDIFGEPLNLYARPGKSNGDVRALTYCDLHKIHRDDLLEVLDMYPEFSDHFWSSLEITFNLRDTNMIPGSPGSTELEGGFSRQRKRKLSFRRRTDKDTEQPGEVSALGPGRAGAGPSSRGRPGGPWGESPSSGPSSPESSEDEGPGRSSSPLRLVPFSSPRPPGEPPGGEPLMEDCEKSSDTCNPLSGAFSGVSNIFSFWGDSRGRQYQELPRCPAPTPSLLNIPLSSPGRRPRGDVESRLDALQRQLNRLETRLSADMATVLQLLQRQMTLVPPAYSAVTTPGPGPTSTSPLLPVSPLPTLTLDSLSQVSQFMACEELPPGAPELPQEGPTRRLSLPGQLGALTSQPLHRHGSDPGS

Structure (SMILES): CC(C)COc1ccc(-c2nnc(-c3ccc(C(=O)O)cc3)o2)cc1
- EC50 [1]: 205 nM

Structure (SMILES): CCn1nc(C(=O)O)cc1C1CC(c2ccc(OCc3c(-c4c(Cl)cccc4Cl)noc3C3CC3)cc2C)=NO1 (configuration not stated)
- IC50 [2]: > 30000 nM
- EC50 [3]: 23 nM

Structure (SMILES): CC(C)Oc1cc(C(=O)NS(=O)(=O)N2CCCCC2)cc2sc(O[C@@H]3CO[C@H]4[C@H]3OC[C@H]4OCc3c(-c4c(Cl)cccc4Cl)noc3C3CC3)nc12
- EC50 [4]: < 30 nM

Structure (SMILES): O=C(O)c1ccc2nc(N3CCC(OCc4c(-c5c(Cl)cccc5Cl)noc4C4CC4)C4CC43)sc2c1 (configuration not stated)
- Activity [5]: 125%
- Activity [6]: 64%

Structure (SMILES): Cc1cc(OCc2c(-c3c(Cl)cccc3Cl)noc2C2CC2)ccc1C1=NOC(c2ccc(C(=O)O)nc2)C1 (configuration not stated)
- IC50 [2]: > 30000 nM
- EC50 [3]: 5 nM

Structure (SMILES): O=C(O)c1ccc(-c2csc(N3[C@@H]4CC[C@H]3C[C@@H](OCc3c(-c5ccccc5OC(F)(F)F)noc3C3CC3)C4)n2)cc1C(F)(F)F
- half-life [7]: 2.5 h

Structure (SMILES): O=C(O)c1cccc(NC(=O)c2ccc(OCCCCc3ccccc3)cc2)c1
- EC50 [8]: 26 nM

Structure (SMILES): COc1cc(Cl)cc(N(CC23CCC(c4ccc(OC)c(C#N)c4)(CC2)CC3)C(=O)c2ccncc2C)c1
- Emax [9]: 28%

Structure (SMILES): CC(C)n1ncc(-c2c(Cl)cccc2Cl)c1COc1ccc(N(C)Cc2cccc(C(=O)O)c2)c(C(F)(F)F)c1
- Activity [10]: 63%
- Activity [11]: 59%

Structure (SMILES): CC[C@H]1[C@@H](O)[C@@H]2[C@H](CC[C@]3(C)[C@@H]([C@H](C)CCNC(=O)NS(=O)(=O)c4ccc(C)cc4)CC[C@@H]23)[C@@]2(C)CC[C@@H](O)[C@H](F)[C@@H]12
- EC50 [12]: 18 nM

Structure (SMILES): O=S(O)c1cc(F)c2nc(N3[C@@H]4CC[C@H]3C[C@@H](OCc3c(-c5ccccc5OC(F)(F)F)noc3C3CC3)C4)sc2c1
- EC50 [3]: < 500 nM

Structure (SMILES): O=C1CCc2cc(OCc3c(-c4c(Cl)cccc4Cl)noc3C3CC3)ccc2N1c1ncc(O)cc1F
- EC50 [13]: 9 nM

Structure (SMILES): Cc1cc(OCc2c(-c3c(Cl)cccc3Cl)noc2C2CC2)ccc1C1=NOC(c2cc(C(=O)O)ccn2)C1 (configuration not stated)
- IC50 [2]: > 30000 nM

Structure (SMILES): CCc1onc(-c2c(Cl)cccc2Cl)c1COc1ccc(C2(C)CC2c2ccc(C(=O)O)cc2)c(Cl)c1 (configuration not stated)
- EC50 [14]: < 100 nM

Structure (SMILES): O=C(O)c1ccc(-c2csc(N3CCC(OCc4c(-c5c(Cl)cccc5Cl)noc4C4CC4)CC3)n2)cc1
- Emax [15]: 101%
- AUC [16]: 14971 ng·h/g
- AUC(0-t) at 24 h [17]: 1180 ng·h/mL
- Cmax [18]: 3370 ng/g
- Cmax [19]: 252 ng/mL
- AUC(0-t) at 24 h [20]: 2410 ng·h/mL
- Cmax [21]: 4340 ng/mL
- EC50 [3]: 12 nM

Structure (SMILES): CC(C)Oc1cc(C(=O)O)cc2sc(O[C@@H]3CO[C@H]4[C@@H]3OC[C@H]4OCc3c(-c4ccccc4OC(F)(F)F)noc3C3CC3)nc12
- EC50 [4]: < 30 nM

Structure (SMILES): Cc1ccc(Cl)cc1N1CCN(C(=O)C23CC4CC(CC(C4)C2)C3)CC1
- half-life [22]: > 8.33 h

Structure (SMILES): Cc1cc(NS(=O)(=O)N2[C@@H]3CC[C@H]2C[C@@H](OCc2c(-c4c(Cl)cccc4Cl)noc2C2CC2)C3)ccc1C(=O)O
- EC50 [23]: < 50 nM

Structure (SMILES): COc1cccc(-c2ccc(NC(=O)C3=C(C(=O)O)CCC3)c(F)c2)c1 [VIDOFLUDIMUS]
- EC50 [23]: 450 nM

Structure (SMILES): O=C(O)c1cccc(NC(=O)c2ccc(Oc3ccccc3)cc2)c1
- EC50 [8]: 10 nM

Structure (SMILES): O=C(O)c1ccc(N2C(=O)CCc3cc(OCc4c(-c5c(Cl)cccc5Cl)noc4C4CC4)ccc32)nc1
- EC50 [13]: 20 nM
